Laboratory results as given in patent publication US20260226073A1 (AURIGENE ONCOLOGY LIMITED, priority 2023, published 2026).

Assays:
[1] = biological target: T1, human recombinant CBL-b (human Biotin CBL-b recombinant protein a.a. 39-426) (Homo sapiens, UniProt Q13191); experiment: Biochemical assay for CBL-b inhibition (ligand displacement TR-FRET); format: binding; conditions: 50 nM CBL-b, 0.3 μM Bodipy FL-Probe, read-out: IC50 (CBL-b inhibition, group)
T1 construct: human Biotin CBL-b recombinant protein a.a; 39-426; Biotin (biotinylated); made in house
In short: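 Biotinylated CBL-b (a.a. 39-426, 50 nM final) pre-incubated with compound 60 min at RT in HEPES/NaCl/Triton/BSA/TCEP buffer, then Bodipy FL probe (0.3 μM final) 60 min, then terbium-streptavidin 60 min. TR-FRET read at 665/615 nm; IC50 and % max inhibition from sigmoidal fits.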

[2] = system: NFAT signaling pathway in Jurkat NFAT reporter cells; experiment: Jurkat NFAT reporter assay; format: cell-based; conditions: Homo sapiens, 30 min with compound, then soluble anti-human CD3/CD28 antibody for 6 hours, luciferase readout, read-out: EC50 (Group)
Description: A human T lymphocyte Jurkat reporter cell line was further used to assess activation of the nuclear factor of activated T-cells (NFAT) signaling pathway by Cbl-b inhibitors. The reporter cell line is a genetically engineered Jurkat T cell line that expresses a luciferase reporter driven by an NFAT-response element (NFAT-RE). The Cbl-b inhibitor was incubated with 1×10^5 Jurkat NFAT reporter cells per well for 30 minutes. Subsequently, cells were stimulated with soluble anti-human CD3/CD28 antibody for 6 hours resulting in NFAT-RE-mediated luminescence. The bioluminescent signal is detected and quantified using Bio-Glo™ Luciferase Assay System. Readouts were reported as fold change over baseline. Here, baseline was the measurement obtained from Jurkat NFAT reporter cells stimulated with anti-CD3 antibody and anti-CD28 antibody, where the cells were not incubated with a Cbl-b inhibitor.

T1 sequence (Q13191 39-426): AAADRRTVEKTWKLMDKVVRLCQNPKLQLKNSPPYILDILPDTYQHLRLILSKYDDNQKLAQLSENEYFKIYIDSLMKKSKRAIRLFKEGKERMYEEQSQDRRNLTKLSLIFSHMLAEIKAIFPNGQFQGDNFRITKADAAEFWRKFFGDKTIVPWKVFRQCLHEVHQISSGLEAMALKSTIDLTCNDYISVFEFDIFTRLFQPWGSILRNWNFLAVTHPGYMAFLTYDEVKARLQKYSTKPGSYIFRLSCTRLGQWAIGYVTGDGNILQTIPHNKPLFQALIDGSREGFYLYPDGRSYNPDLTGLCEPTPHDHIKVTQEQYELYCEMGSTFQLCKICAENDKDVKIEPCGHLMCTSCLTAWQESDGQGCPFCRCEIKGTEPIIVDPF

IC50 [1] [µM] | EC50 [2] [µM] | SMILES
< 0.08 | 0.3 to 1 | Cc1cc(CNCCCC(F)(F)F)cc(N2Cc3ccc(-c4ccc(F)cc4-c4nncn4C)cc3C2=O)n1 [Compound 328, 6-(4-Fluoro-2-(4-methyl-4H-1,2,4-triazol-3-yl)phenyl)-2-(6-methyl-4-(((4,4,4-trifluorobutyl)amino)methyl)pyridin-2-yl)isoindolin-1-one]
< 0.08 | < 0.3 | C[C@@H]1C[C@H](C)CN(Cc2cc(N3Cc4ccc([C@@H](C)Cc5nncn5C)cc4C3=O)nc(C(F)(F)F)c2)C1 (single isomer, unassigned) [Compound 86]
0.08 to 0.3 | 1 to 10 | C[C@@H]1C[C@H](C)CN(Cc2cc(N3Cc4ccc(-c5ccccc5-c5nncn5C)cc4C3=O)nc(C(F)(F)F)c2)C1 [Compound 117, 2-(4-(((3S,5R)-3,5-Dimethylpiperidin-1-yl)methyl)-6-(trifluoromethyl)pyridin-2-yl)-6-(2-(4-methyl-4H-1,2,4-triazol-3-yl)phenyl)isoindolin-1-one]
< 0.08 | 0.3 to 1 | C[C@@H](Cc1nncn1C)c1ccc2c(c1)C(=O)N(c1cc(CNCC3CC3)cc(Cl)n1)C2 (single isomer, unassigned) [Compound 160]
< 0.08 | < 0.3 | Cn1cnnc1-c1cc(Cl)ccc1-c1ccc2c(c1)C(=O)N(c1cc(CNCC3CC3)cc(C(F)(F)F)n1)C2 [Compound 132, 6-(4-Chloro-2-(4-methyl-4H-1,2,4-triazol-3-yl)phenyl)-2-(4-(((cyclopropylmethyl)amino)methyl)-6-(trifluoromethyl)pyridin-2-yl)isoindolin-1-one]
< 0.08 | < 0.3 | C[C@H](N[C@H](C)c1cc(Cl)nc(N2Cc3ccc(C4(Cc5nncn5C)COC4)cc3C2=O)c1)C1CC1 (single isomer, unassigned) [Compound 239]
< 0.08 | < 0.3 | C[C@@H](NCC1CC1)c1cc(Cl)nc(N2Cc3ccc(-c4ccc(Cl)cc4-c4nncn4C)cc3C2=O)c1 (single isomer, unassigned) [Compound 110, 6-(4-Chloro-2-(4-methyl-4H-1,2,4-triazol-3-yl)phenyl)-2-(6-chloro-4-(1-((cyclo-propylmethyl)amino)ethyl)pyridin-2-yl)isoindolin-1-one]
< 0.08 | < 0.3 | C[C@@H](NCc1cc(Cl)nc(N2Cc3ccc(-c4ccc(Cl)cc4-c4nncn4C)cc3C2=O)c1)C1CC1 (single isomer, unassigned) [Compound 108, 6-(4-Chloro-2-(4-methyl-4H-1,2,4-triazol-3-yl)phenyl)-2-(6-chloro-4-(((1-cyclo-propylethyl)amino)methyl)pyridin-2-yl)isoindolin-1-one]
< 0.08 | 0.3 to 1 | C[C@H]1CCCN(Cc2cc(N3Cc4ccc(C5(Cc6nncn6C)COC5)cc4C3=O)cc3occc23)C1 [Compound 94, (S)-6-(3-((4-Methyl-4H-1,2,4-triazol-3-yl)methyl)oxetan-3-yl)-2-(4-((3-methyl-piperidin-1-yl)methyl)benzofuran-6-yl)isoindolin-1-one]
< 0.08 | 1 to 10 | CC(Cc1nncn1C)Nc1ccc2c(c1)C(=O)N(c1cc(CN3CCC[C@H](C)C3)cc(Cl)n1)C2 (stereo partly shown) [Compound 190]
0.08 to 0.3 | 0.3 to 1 | Cn1cnnc1CC1(c2ccc3c(c2)C(=O)N(c2cc(CN4CCC(F)(F)CC4)cc(C(F)(F)F)n2)C3)COC1 [Compound 48, 2-(4-((4,4-Difluoropiperidin-1-yl)methyl)-6-(trifluoromethyl)pyridin-2-yl)-6-(3-((4-methyl-4H-1,2,4-triazol-3-yl)methyl)oxetan-3-yl)isoindolin-1-one]
< 0.08 | < 0.3 | CCC(C)NCc1cc(C)nc(N2Cc3ccc(-c4ccc(F)cc4-c4nncn4C)cc3C2=O)c1 (stereo not shown) [Compound 295, 2-(4-((sec-Butylamino)methyl)-6-methylpyridin-2-yl)-6-(4-fluoro-2-(4-methyl-4H-1,2,4-triazol-3-yl)phenyl)isoindolin-1-one]
< 0.08 | < 0.3 | Cc1cc(C(C)NCC2CC2)cc(N2Cc3ccc(-c4ccc(Cl)cc4-c4nncn4C)cc3C2=O)n1 (stereo not shown) [Compound 103, 6-(4-Chloro-2-(4-methyl-4H-1,2,4-triazol-3-yl)phenyl)-2-(4-(1-((cyclopropylmethyl)amino)ethyl)-6-methylpyridin-2-yl)isoindolin-1-one]
0.08 to 0.3 | 0.3 to 1 | CC(Cc1nncn1C)c1ccc2c(c1)C(=O)N(c1cc(CN3C[C@H](C)C[C@H](C)C3)cc(Cl)n1)C2 (stereo partly drawn) [Compound 84, 2-(6-Chloro-4-(((3S,5R)-3,5-dimethylpiperidin-1-yl)methyl)pyridin-2-yl)-6-(1-(4-methyl-4H-1,2,4-triazol-3-yl)propan-2-yl)isoindolin-1-one]
< 0.08 | 1 to 10 | Cn1cnnc1CC1(c2ccc3c(c2)C(=O)N(c2cc(CNCC4(F)CCC4)cc(Cl)n2)C3)COC1 [Compound 185]
< 0.08 | 0.3 to 1 | Cc1cc(CNCC2CC2)cc(N2Cc3ccc(-c4ccc(F)cc4-c4nncn4C4CC4)cc3C2=O)n1 [Compound 320, 6-(2-(4-Cyclopropyl-4H-1,2,4-triazol-3-yl)-4-fluorophenyl)-2-(4-(((cyclopropyl-methyl)amino)methyl)-6-methylpyridin-2-yl)isoindolin-1-one]
< 0.08 | < 0.3 | Cn1cnnc1CC1(c2ccc3c(c2)C(=O)N(c2cc(CNCC4CCC4)cc(C(F)(F)F)n2)C3)COC1 [Compound 162, 2-(4-(((Cyclobutylmethyl)amino)methyl)-6-(trifluoromethyl)pyridin-2-yl)-6-(3-((4-methyl-4H-1,2,4-triazol-3-yl)methyl)oxetan-3-yl)isoindolin-1-one]
0.08 to 0.3 | 1 to 10 | Cc1cc(N2Cc3ccc(C4(Cc5nncn5C)COC4)cc3C2=O)cc(CN2CCC[C@H](C)C2)n1 [Compound 23, (S)-6-(3-((4-Methyl-4H-1,2,4-triazol-3-yl)methyl)oxetan-3-yl)-2-(2-methyl-6-((3-methylpiperidin-1-yl)methyl)pyridin-4-yl)isoindolin-1-one]
< 0.08 | < 0.3 | Cn1cnnc1-c1cc(Cl)ccc1-c1ccc2c(c1)C(=O)N(c1cc(C(C)(C)NCC3CC3)cc(Cl)n1)C2 [Compound 275, 6-(4-Chloro-2-(4-methyl-4H-1,2,4-triazol-3-yl)phenyl)-2-(6-chloro-4-(2-((cyclopropylmethyl)amino)propan-2-yl)pyridin-2-yl)isoindolin-1-one]
< 0.08 | < 0.3 | C[C@@H]1C[C@H](C)CN(Cc2cc(N3Cc4ccc(C5(Cc6nncn6C)CC(C#N)C5)cc4C3=O)nc(C(F)(F)F)c2)C1 (stereo partly shown) [Compound 143]
< 0.08 | < 0.3 | CC(NCC1CCC1)c1cc(Cl)nc(N2Cc3ccc(C4(Cc5nncn5C)COC4)cc3C2=O)c1 (single isomer, unassigned) [Compound 213, 2-(6-Chloro-4-(1-((cyclobutylmethyl)amino)ethyl)pyridin-2-yl)-6-(3-((4-methyl-4H-1,2,4-triazol-3-yl)methyl)oxetan-3-yl)isoindolin-1-one]
< 0.08 | < 0.3 | Cn1cnnc1CC1(c2ccc3c(c2)C(=O)N(c2cc(CNCC4CCC4)cc(Cl)n2)C3)COC1 [Compound 144, 2-(6-Chloro-4-(((cyclobutylmethyl)amino)methyl)pyridin-2-yl)-6-(3-((4-methyl-4H-1,2,4-triazol-3-yl)methyl)oxetan-3-yl)isoindolin-1-one]
< 0.08 | 1 to 10 | Cc1nc(CNCC2CC2)cc(N2Cc3ccc(-c4ccc(F)cc4-c4nncn4C)cc3C2=O)n1 [Compound 133, 2-(6-(((Cyclopropylmethyl)amino)methyl)-2-methylpyrimidin-4-yl)-6-(4-fluoro-2-(4-methyl-4H-1,2,4-triazol-3-yl)phenyl)isoindolin-1-one]
< 0.08 | 0.3 to 1 | COCCNCc1cc(C)nc(N2Cc3ccc(-c4ccc(F)cc4-c4nncn4C)cc3C2=O)c1 [Compound 302, 6-(4-Fluoro-2-(4-methyl-4H-1,2,4-triazol-3-yl)phenyl)-2-(4-(((2-methoxyethyl)-amino)methyl)-6-methylpyridin-2-yl)isoindolin-1-one]
< 0.08 | < 0.3 | Cc1cc(CN[C@@H](CO)C(C)C)cc(N2Cc3ccc(-c4ccc(F)cc4-c4nncn4C)cc3C2=O)n1 [Compound 315, (R)-6-(4-Fluoro-2-(4-methyl-4H-1,2,4-triazol-3-yl)phenyl)-2-(4-(((1-hydroxy-3-methylbutan-2-yl)amino)methyl)-6-methylpyridin-2-yl)isoindolin-1-one]
< 0.08 | < 0.3 | CC(CNCc1cc(Cl)nc(N2Cc3ccc(C4(Cc5nncn5C)COC4)cc3C2=O)c1)C(F)(F)F (stereo not shown) [Compound 202, 2-(6-Chloro-4-(((3,3,3-trifluoro-2-methylpropyl)amino)methyl)pyridin-2-yl)-6-(3-((4-methyl-4H-1,2,4-triazol-3-yl)methyl)oxetan-3-yl)isoindolin-1-one]
